ChEMBL document CHEMBL1146189, “Antiproliferation and apoptosis induced by C-glycosides in human leukemia cancer cells” (Bioorg Med Chem Lett, 2006)
The source made the active and inactive calls. No cut-off for these calls is given here.

System: HL-60
Assay: Antiproliferative activity against human HL60 cells by MTT assay
Format: functional, cell-based
Settings: Homo sapiens, HL-60; read-out: IC50

IC50 [µM]	SMILES
38.5	c1ccc(COC[C@H]2O[C@@H]3C[C@@H]3[C@@H](OCc3ccccc3)[C@@H]2OCc2ccccc2)cc1
28.2	CCC[C@H]1O[C@H](COCc2ccccc2)[C@@H](OCc2ccccc2)[C@H](OCc2ccccc2)[C@H]1O
12.1	CC(C)(C)C[C@H]1O[C@H](COCc2ccccc2)[C@@H](OCc2ccccc2)[C@H](OCc2ccccc2)[C@H]1O
13.9	CC(C)C[C@H]1O[C@H](COCc2ccccc2)[C@@H](OCc2ccccc2)[C@H](OCc2ccccc2)[C@H]1O
20.2	OC[C@H]1O[C@@H](Cc2ccccc2)[C@H](O)[C@@H](OCc2ccccc2)[C@@H]1OCc1ccccc1
11.8	C=C[C@@H]1O[C@H](COCc2ccccc2)[C@@H](OCc2ccccc2)[C@H](OCc2ccccc2)[C@H]1O
8.5	CC(C)C[C@@H]1O[C@H](COCc2ccccc2)[C@@H](OCc2ccccc2)[C@H](OCc2ccccc2)[C@H]1O
11.7	CCC[C@@H]1O[C@H](COCc2ccccc2)[C@@H](OCc2ccccc2)[C@H](OCc2ccccc2)[C@H]1O
15.1	C=CC[C@@H]1O[C@H](COCc2ccccc2)[C@@H](OCc2ccccc2)[C@H](OCc2ccccc2)[C@H]1O
8.2	CC[C@@H]1O[C@H](COCc2ccccc2)[C@@H](OCc2ccccc2)[C@H](OCc2ccccc2)[C@H]1O
19.3	OCCC[C@@H]1O[C@H](COCc2ccccc2)[C@@H](OCc2ccccc2)[C@H](OCc2ccccc2)[C@H]1O
8.4	C[C@@H]1O[C@H](COCc2ccccc2)[C@@H](OCc2ccccc2)[C@H](OCc2ccccc2)[C@H]1O
8.7	O[C@@H]1[C@@H](OCc2ccccc2)[C@H](OCc2ccccc2)[C@@H](COCc2ccccc2)O[C@H]1Cc1ccccc1

More lines, now with the values behind:

SMILES	IC50 [µM]
CC1(C)OC[C@@H]2O[C@H](COCc3ccccc3)[C@@H](OCc3ccccc3)[C@H](OCc3ccccc3)[C@H]2O1	12.5
O[C@@H]1[C@@H](OCc2ccccc2)[C@H](O)[C@@H](COCc2ccccc2)O[C@H]1Cc1ccccc1	35.3
O[C@@H]1[C@@H](OCc2ccccc2)[C@H](OCc2ccccc2)[C@@H](COCc2ccccc2)O[C@@H]1CC1CCCCC1	17.2
O[C@@H]1[C@@H](OCc2ccccc2)[C@H](OCc2ccccc2)[C@@H](COCc2ccccc2)O[C@H]1CC1CCCCC1	4.1
ClC1(Cl)[C@@H]2[C@@H](OCc3ccccc3)[C@H](OCc3ccccc3)[C@@H](COCc3ccccc3)O[C@@H]21	46.4
O[C@@H]1[C@@H](O)[C@H](Cc2ccccc2)O[C@H](COCc2ccccc2)[C@H]1OCc1ccccc1	26.6
c1ccc(COC[C@H]2OCC[C@@H](OCc3ccccc3)[C@@H]2OCc2ccccc2)cc1	39.3
O[C@@H]1[C@@H](OCc2ccccc2)[C@H](OCc2ccccc2)[C@@H](COCc2ccccc2)O[C@H]1c1ccccc1	26.3
C=CC[C@@H]1O[C@H](COCc2ccccc2)[C@@H](OCc2ccccc2)[C@H](OCc2ccccc2)C1=O	31.8
C=CC[C@@H]1O[C@H](COCc2ccccc2)[C@@H](OCc2ccccc2)[C@H](OCc2ccccc2)[C@H]1OC(C)=O	26.9

Same assay, conditions: hl-60

IC50	SMILES
Not Active	O[C@@H]1[C@@H](OCc2ccccc2)[C@H](OCc2ccccc2)[C@@H](COCc2ccccc2)O[C@@H]1Cc1ccccc1
Not Active	CCCC[C@@H]1O[C@H](COCc2ccccc2)[C@@H](OCc2ccccc2)[C@H](OCc2ccccc2)[C@H]1O
Not Active	CCC[C@@H]1O[C@H](COCc2ccccc2)[C@@H](OCc2ccccc2)[C@H](OCc2ccccc2)[C@@H]1O
Not Active	CC(C)(C)C[C@@H]1O[C@H](COCc2ccccc2)[C@@H](OCc2ccccc2)[C@H](OCc2ccccc2)[C@H]1O
Not Active	CCC[C@H]1O[C@H](COCc2ccccc2)[C@H](OCc2ccccc2)[C@H](OCc2ccccc2)[C@H]1O
Not Active	CCCC[C@H]1O[C@H](COCc2ccccc2)[C@@H](OCc2ccccc2)[C@H](OCc2ccccc2)[C@H]1O
Not Active	CC(C)C[C@@H]1O[C@H](COCc2ccccc2)[C@@H](OCc2ccccc2)[C@H](OCc2ccccc2)[C@@H]1O
Not Active	CCCCC[C@@H]1O[C@H](COCc2ccccc2)[C@@H](OCc2ccccc2)[C@H](OCc2ccccc2)[C@H]1O
Not Active	CCC[C@H]1O[C@H](COCc2ccccc2)[C@@H](OCc2ccccc2)[C@H](OCc2ccccc2)[C@@H]1O
Not Active	CC(C)C[C@H]1O[C@H](COCc2ccccc2)[C@@H](OCc2ccccc2)[C@H](OCc2ccccc2)[C@@H]1O
Not Active	CC[C@H]1O[C@H](COCc2ccccc2)[C@@H](OCc2ccccc2)[C@H](OCc2ccccc2)[C@H]1O
Not Active	C=C[C@H]1O[C@H](COCc2ccccc2)[C@@H](OCc2ccccc2)[C@H](OCc2ccccc2)[C@H]1O
Not Active	O[C@@H]1[C@@H](OCc2ccccc2)[C@H](OCc2ccccc2)[C@@H](COCc2ccccc2)O[C@H]1CC1CC1
Not Active	CC(C)C[C@@H]1O[C@H](COCc2ccccc2)[C@H](OCc2ccccc2)[C@H](OCc2ccccc2)[C@H]1O
Not Active	O[C@H]1CO[C@H](COCc2ccccc2)[C@@H](OCc2ccccc2)[C@@H]1OCc1ccccc1
Not Active	C=CC[C@@H]1O[C@H](COCc2ccccc2)[C@@H](OCc2ccccc2)[C@H](OCc2ccccc2)C1O (single isomer, unassigned)
Not Active	c1ccc(COC[C@H]2O[C@H]3C[C@H]3[C@@H](OCc3ccccc3)[C@@H]2OCc2ccccc2)cc1
Not Active	CCC[C@@H]1O[C@H](COCc2ccccc2)[C@H](OCc2ccccc2)[C@H](OCc2ccccc2)[C@H]1O
Not Active	CC(C)C[C@H]1O[C@H](COCc2ccccc2)[C@H](OCc2ccccc2)[C@H](OCc2ccccc2)[C@H]1O
Not Active	C[C@H]1O[C@H](COCc2ccccc2)[C@@H](OCc2ccccc2)[C@H](OCc2ccccc2)[C@H]1O
Not Active	C#CC[C@@H]1O[C@H](COCc2ccccc2)[C@@H](OCc2ccccc2)[C@H](OCc2ccccc2)[C@H]1O

The next lines start with the molecule.

SMILES	IC50
O[C@@H]1[C@@H](OCc2ccccc2)[C@H](OCc2ccccc2)[C@@H](COCc2ccccc2)O[C@]12CCCO2	Not Active
CC(=O)O[C@@H]1[C@@H](OCc2ccccc2)[C@H](OCc2ccccc2)[C@@H](COCc2ccccc2)O[C@H]1Cc1ccccc1	Not Active
OC[C@H]1O[C@@H](Cc2ccccc2)[C@H](O)[C@@H](O)[C@@H]1OCc1ccccc1	Not Active
CC(=O)OC[C@@H]1O[C@H](COCc2ccccc2)[C@@H](OCc2ccccc2)[C@H](OCc2ccccc2)[C@H]1OC(C)=O	Not Active
C=CC[C@@H]1O[C@H](COC(C)=O)[C@@H](OC(C)=O)[C@H](OC(C)=O)[C@H]1OC(C)=O	Not Active
OC[C@H]1O[C@@H](Cc2ccccc2)[C@H](O)[C@@H](OCc2ccccc2)[C@@H]1O	Not Active
O[C@@H]1[C@@H](OCc2ccccc2)[C@H](OCc2ccccc2)[C@@H](COCc2ccccc2)O[C@@]12CCCO2	Not Active
CC(=O)OC[C@H]1O[C@@H](Cc2ccccc2)[C@H](OC(C)=O)[C@@H](OC(C)=O)[C@@H]1OC(C)=O	Not Active
OC[C@H]1O[C@@H](Cc2ccccc2)[C@H](O)[C@@H](O)[C@@H]1O	Not Active
CC(=O)OC[C@@H]1O[C@H](COCc2ccccc2)[C@@H](OCc2ccccc2)[C@H](OCc2ccccc2)[C@H]1OCc1ccccc1	Not Active
CCCCCCCCCCCCCCCOC[C@H]1O[C@@H](CCC)[C@H](O)[C@@H](OCCCCCCCCCCCCCCC)[C@@H]1OCCCCCCCCCCCCCCC	Not Active
C=C[C@H]1O[C@H](COCc2ccccc2)[C@@H](OCc2ccccc2)[C@H](OCc2ccccc2)[C@H]1OC(C)=O	Not Active
CCC[C@@H]1O[C@H](CO)[C@@H](O)[C@H](O)[C@H]1O	Not Active
C=CC[C@@H]1O[C@H](CO)[C@@H](O)[C@H](O)[C@H]1O	Not Active
CCCCCCCCCCCCCCCOC[C@H]1O[C@H](CCC)[C@H](O)[C@@H](OCCCCCCCCCCCCCCC)[C@@H]1OCCCCCCCCCCCCCCC	Not Active
CCCCOC[C@H]1O[C@@H](CCC)[C@H](O)[C@@H](OCCCC)[C@@H]1OCCCC	Not Active
CC(=O)O[C@@H]1[C@@H](OCc2ccccc2)[C@H](OCc2ccccc2)[C@@H](COCc2ccccc2)O[C@@H]1Cc1ccccc1	Not Active
CCC[C@@H]1O[C@H](COC)[C@@H](OC)[C@H](OC)[C@H]1O	Not Active
O[C@@H]1[C@@H](O)[C@H](Cc2ccccc2)O[C@H](COCc2ccccc2)[C@H]1O	Not Active
O[C@@H]1[C@@H](OCc2ccccc2)[C@H](OCc2ccccc2)[C@@H](COCc2ccccc2)O[C@@H]1c1ccccc1	Not Active

System: HL-60
Assay: Induction of apoptosis in human HL60 cells
Format: functional, cell-based
Settings: not given

SMILES	Activity
CC1(C)OC[C@@H]2O[C@H](COCc3ccccc3)[C@@H](OCc3ccccc3)[C@H](OCc3ccccc3)[C@H]2O1	Active
CC(C)C[C@@H]1O[C@H](COCc2ccccc2)[C@@H](OCc2ccccc2)[C@H](OCc2ccccc2)[C@H]1O	Active
C=CC[C@@H]1O[C@H](COCc2ccccc2)[C@@H](OCc2ccccc2)[C@H](OCc2ccccc2)[C@H]1O	Active
CC[C@@H]1O[C@H](COCc2ccccc2)[C@@H](OCc2ccccc2)[C@H](OCc2ccccc2)[C@H]1O	Active
